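Where inhibition never reached the appropriate level, the endpoint shown equals the highest concentration tested. Otherwise, values were interpolated linearly from a five-concentration, 48-hour dose response in 96-well plates. At the GI50, growth is halved.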 The source made the active and inactive calls. Rule as the data show it: active = GI50 up to about 1.1 µM and inactive = higher.
Assays:
Test in all cases: growth of human tumour cells (NCI), 48 h
[1] = tested on: HL-60
[2] = tested on: UO-31
[3] = tested on: KM12
[4] = tested on: T47D
[5] = tested on: UACC-62
[6] = tested on: HOP-92
[7] = tested on: Malme-3M
[8] = tested on: SK-MEL-28
[9] = tested on: MDA-N
[10] = tested on: SW-620
[11] = tested on: SF-268
[12] = tested on: OVCAR-8
[13] = tested on: BT-549
[14] = tested on: M14
[15] = tested on: CCRF-CEM
[16] = tested on: MDA-MB-231
[17] = tested on: HCT-15
[18] = tested on: A498
[19] = tested on: NCI-H460
[20] = tested on: HCT-116
[21] = tested on: DU-145
[22] = tested on: U-251
[23] = tested on: NCI-H226
[24] = tested on: UACC-257
[25] = tested on: K562
[26] = tested on: MDA-MB-435
[27] = tested on: SK-OV-3
[28] = tested on: HT-29
[29] = tested on: A549
[30] = tested on: MCF7
[31] = tested on: RPMI-8226
[32] = tested on: SNB-75
[33] = tested on: NCI/ADR-RES
[34] = tested on: MOLT-4
[35] = tested on: PC-3
[36] = tested on: 786-0
[37] = tested on: OVCAR-4
[38] = tested on: RXF 393
[39] = tested on: LOX IMVI
[40] = tested on: COLO 205
[41] = tested on: SR
[42] = tested on: TK-10
[43] = tested on: SN12C
[44] = tested on: Hs-578T
[45] = tested on: OVCAR-3
[46] = tested on: SK-MEL-2
[47] = tested on: HOP-62
[48] = tested on: SK-MEL-5
[49] = tested on: SNB-19
[50] = tested on: CAKI-1
[51] = tested on: NCI-H23
[52] = tested on: IGROV-1
[53] = tested on: SF-539
[54] = tested on: EKVX
[55] = tested on: NCI-H522
[56] = tested on: HCC 2998
[57] = tested on: OVCAR-5
[58] = tested on: ACHN
[59] = tested on: SF-295

## N#Cc1c(N)nc2c(c1-c1ccc(Br)cc1)CSc1ccccc1-2
[1]
  GI50: 33.7 µM (inactive)
[2]
  GI50: 33.8 µM (inactive)
[3]
  GI50: 56 µM (inactive)
[4]
  GI50: 17.4 µM (inactive)
[5]
  GI50: 21.4 µM (inactive)
[6]
  GI50: 9.02 µM (inactive)
[7]
  GI50: > 100 µM (inactive)
[8]
  GI50: 68.7 µM (inactive)
[9]
  GI50: 49.4 µM (inactive)
[10]
  GI50: 83.4 µM (inactive)
[11]
  GI50: 33.1 µM (inactive)
[12]
  GI50: 55 µM (inactive)
[13]
  GI50: > 100 µM (inactive)
[14]
  GI50: 41.7 µM (inactive)
[15]
  GI50: 22.4 µM (inactive)
[16]
  GI50: 13.3 µM (inactive)
[17]
  GI50: 25.6 µM
[18]
  GI50: > 100 µM (inactive)
[19]
  GI50: 25.8 µM (inactive)
[20]
  GI50: 18.5 µM (inactive)
[21]
  GI50: 96.6 µM (inactive)
[22]
  GI50: 34.4 µM (inactive)
[23]
  GI50: 16.1 µM (inactive)
[24]
  GI50: 13.9 µM (inactive)
[25]
  GI50: 32.1 µM (inactive)
[26]
  GI50: 19.5 µM (inactive)
[27]
  GI50: 29.6 µM (inactive)
[28]
  GI50: 34.6 µM (inactive)
[29]
  GI50: 37.2 µM (inactive)
[30]
  GI50: 19.1 µM (inactive)
[31]
  GI50: 18.2 µM (inactive)
[32]
  GI50: 31.4 µM (inactive)
[33]
  GI50: 22 µM (inactive)
[34]
  GI50: 38.7 µM (inactive)
[35]
  GI50: 16.7 µM (inactive)
[36]
  GI50: 27.1 µM (inactive)
[37]
  GI50: 24.6 µM (inactive)
[38]
  GI50: 20.1 µM (inactive)
[39]
  GI50: 28.6 µM (inactive)
[40]
  GI50: 13.3 µM (inactive)
[41]
  GI50: 68.4 µM (inactive)
[42]
  GI50: 73.1 µM (inactive)
[43]
  GI50: 30 µM (inactive)
[44]
  GI50: 22.8 µM (inactive)
[45]
  GI50: 30.4 µM (inactive)
[46]
  GI50: 27.2 µM (inactive)
[47]
  GI50: 50.1 µM (inactive)
[48]
  GI50: 58.7 µM (inactive)
[49]
  GI50: 39.7 µM (inactive)
[50]
  GI50: 14.9 µM (inactive)
[51]
  GI50: 29.6 µM (inactive)
[52]
  GI50: 21.9 µM (inactive)
[53]
  GI50: 35 µM (inactive)

## CCOP(=O)(CN1CCNCCNCC1)OCC
[1]
  GI50: 92.7 µM (inactive)
[2]
  GI50: > 100 µM (inactive)
[54]
  GI50: > 100 µM (inactive)
[3]
  GI50: > 100 µM (inactive)
[4]
  GI50: > 100 µM (inactive)
[5]
  GI50: > 100 µM (inactive)
[6]
  GI50: > 100 µM (inactive)
[8]
  GI50: > 100 µM (inactive)
[9]
  GI50: > 100 µM (inactive)
[55]
  GI50: > 100 µM (inactive)
[10]
  GI50: > 100 µM (inactive)
[12]
  GI50: > 100 µM (inactive)
[13]
  GI50: > 100 µM (inactive)
[14]
  GI50: > 100 µM (inactive)
[56]
  GI50: > 100 µM (inactive)
[57]
  GI50: > 100 µM (inactive)
[15]
  GI50: > 100 µM (inactive)
[16]
  GI50: > 100 µM (inactive)
[17]
  GI50: > 100 µM
[18]
  GI50: > 100 µM (inactive)
[19]
  GI50: > 100 µM (inactive)
[20]
  GI50: > 100 µM (inactive)
[21]
  GI50: > 100 µM (inactive)
[58]
  GI50: > 100 µM (inactive)
[22]
  GI50: > 100 µM (inactive)
[23]
  GI50: > 100 µM (inactive)
[24]
  GI50: > 100 µM (inactive)
[25]
  GI50: > 100 µM (inactive)
[26]
  GI50: > 100 µM (inactive)
[27]
  GI50: > 100 µM (inactive)
[28]
  GI50: > 100 µM (inactive)
[29]
  GI50: > 100 µM (inactive)
[30]
  GI50: > 100 µM (inactive)
[31]
  GI50: > 100 µM (inactive)
[32]
  GI50: 26.6 µM (inactive)
[33]
  GI50: > 100 µM (inactive)
[34]
  GI50: > 100 µM (inactive)
[35]
  GI50: > 100 µM (inactive)
[36]
  GI50: > 100 µM (inactive)
[59]
  GI50: > 100 µM (inactive)
[37]
  GI50: > 100 µM (inactive)
[39]
  GI50: > 100 µM (inactive)
[40]
  GI50: > 100 µM (inactive)
[41]
  GI50: > 100 µM (inactive)
[42]
  GI50: > 100 µM (inactive)
[43]
  GI50: > 100 µM (inactive)
[44]
  GI50: > 100 µM (inactive)
[45]
  GI50: > 100 µM (inactive)
[46]
  GI50: > 100 µM (inactive)
[47]
  GI50: > 100 µM (inactive)
[48]
  GI50: > 100 µM (inactive)
[49]
  GI50: > 100 µM (inactive)
[50]
  GI50: > 100 µM (inactive)
[52]
  GI50: > 100 µM (inactive)
[53]
  GI50: > 100 µM (inactive)
